{
  "source": "paper PMC3632207",
  "about": "(Journal of medicinal chemistry, 2013)",
  "target": "rat nNOS (Rattus norvegicus, UniProt P29476)",
  "assay": "NOS inhibition, hemoglobin capture assay",
  "format": "biochemical",
  "settings": "data not shown",
  "data": [
    {"smiles": "Cc1cc(N)nc(CCc2cc(CCCN)cc(CCc3cc(C)cc(N)n3)c2)c1", "note": "[Compound 4, 6,6'-((5-(3-Aminopropyl)-1,3-phenylene)bis(ethane-2,1-diyl))bis(4-methylpyridin-2-amine)]", "values": [
      {"measurement": "Competition with H4B", "value": "not to be competitive with H4B"}
    ]}
  ]
}
